Assay results as given in patent US9155729B2, “Thiazolidinedione analogues” (Metabolic Solutions Development Company, LLC, priority 2006, dated 2015).
Marks after values point to notes of the source that are not given here.

What was measured:
Diabetic KKAy mice [1] = assay: Glucose and insulin in diabetic KKAy mice dosed 7 days with compound 1 or rosiglitazone; type: in vivo; details: 20 mg rosiglitazone or 100 mg/kg compound 1, fasting, 8th day, mean, 8 mice/group
Method: (§1) KKAy mice were dosed for 7 days with 20 mg rosigltiazone (positive control) and 100 mg/kg of compound 1 in suspension (1% sodium methyl carboxymethyl cellulose/0.01% Tween 80). On the 8th day, fasting, glucose, and insulin were measured, see Table D. The liver was isolated was used to measure hepatic mRNA for aP2, a biomarker for PPARγ activation in vivo. […] Data are mean and (SEM) for 8 mice/group.

PPARγ = biological target: T1, PPARγ (Homo sapiens, UniProt P37231); assay: Commercial PPARγ binding assay (Invitrogen, PPAR-LBD/Fluormone PPAR Green complex); details: for PPARγ binding signal (fluorescence polarization, Fluormone PPAR Green displacement): mean of three experiments
T1 construct: purchased Invitrogen Corporation, Carlsbad, Calif
T1 sequence (P37231 238-503 limits assumed): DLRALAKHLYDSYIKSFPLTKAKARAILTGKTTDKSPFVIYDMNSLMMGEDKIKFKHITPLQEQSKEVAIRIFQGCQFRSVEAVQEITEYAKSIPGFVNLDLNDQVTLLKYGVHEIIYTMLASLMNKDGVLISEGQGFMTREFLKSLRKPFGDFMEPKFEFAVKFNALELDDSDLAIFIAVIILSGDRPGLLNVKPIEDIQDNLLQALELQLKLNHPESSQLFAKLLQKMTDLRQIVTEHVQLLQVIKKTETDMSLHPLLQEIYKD
Method: The ability of several exemplary compounds of the present invention, shown in Table A, to bind to PPARγ was measured using a commercial binding assay (Invitrogen Corporation, Carlsbad, Calif.) that measures the test compounds ability to bind with PPAR-LBD/Fluormone PPAR Green complex. These assays were performed on three occasions with each assay using four separate wells (quadruplicate) at each concentration of tested compound. The data are mean and SEM of the values obtained from the three experiments. […] Compounds were added at the concentrations shown, which range from 0.1-100 micromolar.

Diabetic KKAy mice [2] = assay: Glucose, insulin and triglyceride in diabetic KKAy mice, 4 days oral dosing; type: in vivo; details: 93 mg/kg orally for 4 days, fasted, blood approx. 18 hours after last dose, mean and SEM, N=6-12
Method: The insulin sensitizing and antidiabetic pharmacology are measured in the KKA^Y mice as previously reported [Hofmann, C., Lomez, K., and Colca, J. R. (1991). Glucose transport deficiency corrected by treatment with the oral anti-hyperglycemic agent Pioglitazone. Endocrinology, 129:1915-1925.]. Compounds are formulated in 1% sodium carboxy methylcellulose, and 0.01% tween 20 and dosed daily by oral gavage.
Compounds were formulated by suspension and orally dosed to KKAy mice at 93 mg/kg for 4 days. The compounds were first dissolved in DMSO and then placed into aqueous suspension containing 7-10% DMSO, 1% sodium methylcarboxycellulose, and 0.01% Tween 20. On the fifth day, the mice were fasted and blood samples were obtained approximately 18 hours after the last dose. The parameters were measured by standard assay methods. Data are mean and SEM N=6-12 mice.

aP2 = assay: Hepatic mRNA for aP2, biomarker for PPARγ activation in vivo, KKAy mice
Method: as §1

Structure (SMILES)	Glucose (Diabetic KKAy mice [1]) [mg/dL]	Insulin (Diabetic KKAy mice [1]) [ng/mL]	PPARγ binding signal (fluorescence polarization, Fluormone PPAR Green displacement) (PPARγ; 1 μM compound)	PPARγ binding signal (fluorescence polarization, Fluormone PPAR Green displacement) (PPARγ; 3 μM compound)	PPARγ binding signal (fluorescence polarization, Fluormone PPAR Green displacement) (PPARγ; 10 μM compound)	PPARγ binding signal (fluorescence polarization, Fluormone PPAR Green displacement) (PPARγ; 50 μM compound)	PPARγ binding signal (fluorescence polarization, Fluormone PPAR Green displacement) (PPARγ; 100 μM compound)	PPARγ binding signal (fluorescence polarization, Fluormone PPAR Green displacement) (PPARγ; .1 μM compound)	PPARγ binding signal (fluorescence polarization, Fluormone PPAR Green displacement) (PPARγ; .3 μM compound)	Binding to PPARγ (in words) (PPARγ; referring to FIG. 1 and Table B)	Glucose (Diabetic KKAy mice [2])	Insulin (Diabetic KKAy mice [2])	Triglycerides (Diabetic KKAy mice [2])	aP2 (relative expression in liver) (aP2; KKAy mice dosed 7 days, 20 mg rosiglitazone or 100 mg/kg compound 1, hepatic mRNA, mean, 8 mice/group)	Activation of PPARγ in vivo as compared to the positive control (in words) (aP2; KKAy mice, hepatic aP2 mRNA, 100 mg/kg for 7 days)
CCc1ccc(C(=O)COc2ccc(CC3SC(=O)NC3=O)cc2)nc1 (stereo not drawn) [Compound 1]	291	1.9	223	228	207	174	170	227	232	particularly poor binders	402 +/− 25* mg/dl	7.6 +/− 1.9* ng/ml	115 +/− 18* mg/dl	5.7	little activation of PPARγ
CCc1ccc(C(=CC(=O)OC)COc2ccc(CC3SC(=O)NC3=O)cc2)nc1 (stereo not drawn) [Compound 11]	–	–	232	229	165	128	78	230	227	–	662 ± 40 mg/dL	18.9 ± 1.6 ng/mL	476 ± 106 mg/dL	–	–
CN(CCOc1ccc(CC2SC(=O)NC2=O)cc1)c1ccccn1 (stereo not drawn) [Rosiglitazone, reference compound]	320	3.4	–	–	–	–	–	–	–	–	–	–	–	–	–
